One block for each molecule: values may come before it. Calls of active or inactive are those of the source. The calls are words filed in the database; no cut-off is given here.
Assays:
HL-60 [1] = assay: Cytotoxicity against human HL60 cells at 80 uM after 48 hrs by MTT assay; format: functional, cell-based
Saccharomyces cerevisiae [2] = assay: Growth restoration activity in cdc2-1 rad9-deficient Saccharomyces cerevisiae assessed as growth zone at 5 ug/disc incubated at 37 degC for 6 hrs and 28 degC for 2 days; format: functional, organism-based
Saccharomyces cerevisiae [3] = assay: Growth restoration activity in cdc2-1 rad9-deficient Saccharomyces cerevisiae assessed as growth zone at 0.05 ug/disc incubated at 37 degC for 6 hrs and 28 degC for 2 days; format: functional
Saccharomyces cerevisiae [4] = assay: Growth restoration activity in cdc2-1 rad9-deficient Saccharomyces cerevisiae assessed as growth zone at 400 ug/disc; format: functional, organism-based
HL-60 [5] = assay: Induction of apoptosis in human HL60 cells assessed as caspase 8 activation at 200 uM after 1 hrs by spectrophotometric analysis; format: functional, cell-based
HL-60 [6] = assay: Cytotoxicity against human HL60 cells after 48 hrs by MTT assay in presence of DFOM; format: functional, cell-based; conditions: HL-60, 48 h
HL-60 [7] = assay: Cytotoxicity against human HL60 cells after 48 hrs by MTT assay in absence of DFOM; format: functional, cell-based; conditions: HL-60, 48 h
HL-60 [8] = assay: Induction of apoptosis in human HL60 cells assessed as caspase 9 activation at 200 uM after 1 hrs by spectrophotometric analysis; format: functional, cell-based
HL-60 [9] = assay: Cytotoxicity against human HL60 cells after 48 hrs by MTT assay; format: functional, cell-based; conditions: HL-60, 48 h
HL-60 [10] = assay: Induction of apoptosis in human HL60 cells assessed as caspase 3/7 activation at 200 uM after 1 hrs by spectrophotometric analysis; format: functional, cell-based
[11] = Drug metabolism in buffer at pH 8 after 24 hrs by HPLC analysis in presence of […]; format: physicochemical; conditions: pH 8, 24 h
Saccharomyces cerevisiae [12] = assay: Growth restoration activity in cdc2-1 rad9-deficient Saccharomyces cerevisiae assessed as growth zone at 10 ug/disc incubated at 37 degC for 6 hrs and 28 degC for 2 days; format: functional
NCI-H226 = assay: Growth inhibition of human NCI-H226 cells; format: functional
[13] = Growth inhibition of human HBC5 cells; format: functional
SK-OV-3 = assay: Growth inhibition of human SKOV3 cells; format: functional
OVCAR-8 = assay: Growth inhibition of human OVCAR8 cells; format: functional
SNB-78 = assay: Growth inhibition of human SNB78 cells; format: functional
DMS-273 = assay: Growth inhibition of human DMS273 cells; format: functional
PC-3 = assay: Growth inhibition of human PC3 cells; format: functional
MKN-7 = assay: Growth inhibition of human MKN7 cells; format: functional
HL-60 [14] = assay: Induction of apoptosis in human HL60 cells assessed as caspase 3/7 activation after 1 to 3 hrs by spectrophotometric analysis; format: functional, cell-based
ACHN = assay: Growth inhibition of human ACHN cells; format: functional
HCT-116 = assay: Growth inhibition of human HCT116 cells; format: functional
SF-539 = assay: Growth inhibition of human SF539 cells; format: functional
LOX IMVI = assay: Growth inhibition of human LOXIMVI cells; format: functional
OVCAR-4 = assay: Growth inhibition of human OVCAR4 cells; format: functional
NCI-H23 = assay: Growth inhibition of human NCI-H23 cells; format: functional
[15] = Growth inhibition of human RXF631L cells; format: functional; conditions: RXF 631
MDA-MB-231 = assay: Growth inhibition of human MDA-MB-231 cells; format: functional
[16] = Growth inhibition of human HBC4 cells; format: functional
KM12 = assay: Growth inhibition of human KM12 cells; format: functional
OVCAR-3 = assay: Growth inhibition of human OVCAR3 cells; format: functional
HCC 2998 = assay: Growth inhibition of human HCC2998 cells; format: functional
U-251 = assay: Growth inhibition of human U251 cells; format: functional
HL-60 [17] = assay: Ratio of IC50 for human HL60 cells in presence of DFOM to IC50 for human HL60 cells in absence of DFOM; format: functional
HCT-15 = assay: Growth inhibition of human HCT15 cells; format: functional
DU-145 = assay: Growth inhibition of human DU145 cells; format: functional
HL-60 [18] = assay: Induction of apoptosis in human HL60 cells assessed as caspase 3/7 activation at 1 uM after 12 hrs by spectrophotometric analysis; format: functional, cell-based
HL-60 [19] = assay: Induction of apoptosis in human HL60 cells assessed as caspase 9 activation at 1 uM after 12 hrs by spectrophotometric analysis; format: functional, cell-based
MKN-74 = assay: Growth inhibition of human MKN74 cells; format: functional
NCI-H460 = assay: Growth inhibition of human NCI-H460 cells; format: functional
OVCAR-5 = assay: Growth inhibition of human OVCAR5 cells; format: functional
HL-60 [20] = assay: Induction of apoptosis in human HL60 cells assessed as caspase 9 activation after 1 to 3 hrs by spectrophotometric analysis; format: functional, cell-based
A549 = assay: Growth inhibition of human A549 cells; format: functional
NCI-H522 = assay: Growth inhibition of human NCI-H522 cells; format: functional
HL-60 [21] = assay: Induction of apoptosis in human HL60 cells assessed as caspase 8 activation after 1 to 3 hrs by spectrophotometric analysis; format: functional, cell-based
[22] = Growth inhibition of human BSY1 cells; format: functional; conditions: BSY-1
MKN-28 = assay: Growth inhibition of human MKN28 cells; format: functional
SF-268 = assay: Growth inhibition of human SF268 cells; format: functional
[23] = Growth inhibition of human MKN1 cells; format: functional; conditions: MKN-1
St-4 = assay: Growth inhibition of human St-4 cells; format: functional
MCF7 = assay: Growth inhibition of human MCF7 cells; format: functional
Saccharomyces cerevisiae [24] = assay: Growth restoration activity in cdc2-1 rad9-deficient Saccharomyces cerevisiae assessed as growth zone at 12.5 to 400 ug/disc incubated at 37 degC for 6 hrs and 28 degC for 2 days; format: functional, organism-based
DMS-114 = assay: Growth inhibition of human DMS114 cells; format: functional
HT-29 = assay: Growth inhibition of human HT-29 cells; format: functional
SF-295 = assay: Growth inhibition of human SF295 cells; format: functional
SNB-75 = assay: Growth inhibition of human SNB75 cells; format: functional
HL-60 [25] = assay: Induction of apoptosis in human HL60 cells assessed as caspase 8 activation at 1 uM after 12 hrs by spectrophotometric analysis; format: functional, cell-based
MKN-45 = assay: Growth inhibition of human MKN45 cells; format: functional

Structure (SMILES): CC(C)=CCCC(C)[C@@]12CC[C@]3(C)O[C@@H]3[C@@H]1O2 (relative stereo)
Activity (HL-60 [1]): inactive | Activity (Saccharomyces cerevisiae [2]): inactive

Structure (SMILES): COc1c(C)c2c(c(O)c1C/C=C(\C)CCC(=O)O)C(=O)OC2 [MYCOPHENOLIC ACID]
Activity (Saccharomyces cerevisiae [3]): 18.5 mm

Drug metabolism [11]: Not Active
Structure (SMILES): CC(C)=CCC[C@@H](C)c1ccc(C)cc1
Activity (Saccharomyces cerevisiae [4]): inactive | Activity (HL-60 [5]): Active | IC50 (HL-60 [6]): 147 µM | IC50 (HL-60 [7]): 107 µM | Activity (HL-60 [8]): Active | IC50 (HL-60 [9]): 109 µM | Activity (HL-60 [10]): Active

Structure (SMILES): NC(=O)NO [HYDROXYUREA]
Activity (Saccharomyces cerevisiae [12]): 14.3 mm

GI50 (NCI-H226): 15.8 µM | GI50 (SK-OV-3): 10.2 µM | GI50 (OVCAR-8): 4.17 µM | GI50 (PC-3): 3.16 µM | GI50 (MKN-7): 3.02 µM | GI50 (ACHN): 7.08 µM | GI50 (HCT-116): 1350 nM | GI50 (OVCAR-4): 12.9 µM | GI50 (NCI-H23): 6.17 µM | GI50 (MDA-MB-231): 19.1 µM | GI50 (OVCAR-3): 10.2 µM | GI50 (HCC 2998): 14.8 µM | GI50 (U-251): 3.31 µM | GI50 (HCT-15): 912 nM | GI50 (DU-145): 18.6 µM | GI50 (MKN-74): 3.98 µM | GI50 (NCI-H460): 7.41 µM | GI50 (OVCAR-5): 12.9 µM | GI50 (A549): 15.5 µM | GI50 (NCI-H522): 2290 nM | GI50 (MKN-28): 4.57 µM | GI50 (MCF7): 6.17 µM | GI50 (HT-29): 4.37 µM | GI50 (MKN-45): 5.25 µM
Structure (SMILES): C[C@H]1[C@@H](O)O[C@@H]2O[C@@]3(C)CC[C@H]4[C@H](C)CC[C@@H]1[C@@]24OO3 [ARTENIMOL]
GI50 [13]: 5.37 µM | Activity (Saccharomyces cerevisiae [4]): inactive | GI50 (SNB-78): 8.32 µM | GI50 (DMS-273): 4.47 µM | Activity (HL-60 [14]): Dose-dependent effect | GI50 (SF-539): 9.77 µM | GI50 (LOX IMVI): 3.16 µM | GI50 [15]: 25.7 µM | IC50 (HL-60 [6]): > 20 µM | GI50 [16]: 2040 nM | GI50 (KM12): 6.03 µM | Ratio IC50 (HL-60 [17]): >100 | IC50 (HL-60 [7]): 0.18 µM | Activity (HL-60 [18]): Active | Activity (HL-60 [19]): Active | IC50 (HL-60 [9]): 0.26 µM | Activity (HL-60 [20]): Dose-dependent effect | Activity (HL-60 [21]): Dose-dependent effect | GI50 [22]: 11.2 µM | GI50 (SF-268): 20.9 µM | GI50 [23]: 3.89 µM | GI50 (St-4): 5.37 µM | Activity (Saccharomyces cerevisiae [24]): inactive | GI50 (DMS-114): 1580 nM | GI50 (SF-295): 15.5 µM | GI50 (SNB-75): 11.7 µM | Activity (HL-60 [25]): Active
